# Experimental data from ChEMBL document CHEMBL2412969, “Antihyperglycemic and antihyperlipidemic activities of 2-(4-[(2-hydroxybenzyl) amino]-phenyl amino-methyl)-phenol in STZ induced diabetic rats” (Eur J Med Chem, 2013).
# Activity calls are given as the source filed them. The rule behind the calls is not given here.
# How the values were obtained:
# Rattus norvegicus [1] = experiment: Hypoglycemic activity in Wistar albino rat assessed as reduction of blood glucose level at 20 mg/kg, po after 4 hrs (reference value: 75.8 +/- 4.7 mg/dl); type: ADME, organism-based; parameters: dose 20 mg/kg, route oral; conditions: in vivo
# Rattus norvegicus [2] = experiment: Renalprotective activity in Wistar albino rat assessed as protection against streptozotocin-induced increase in urea level in blood at 30 mg/kg, po qd for 30 days; type: functional
# Rattus norvegicus [3] = experiment: Toxicity in Wistar albino rat assessed as increase of body weight at 30 mg/kg, po qd measured on day 30 (reference value: 8.82%); type: organism-based; parameters: dose 30 mg/kg, route oral; conditions: in vivo
# Rattus norvegicus [4] = experiment: Hypoglycemic activity in Wistar albino rat assessed as reduction of blood glucose level at 30 mg/kg, po after 5 hrs (reference value: 73.8 +/- 4.5 mg/dl); type: ADME, organism-based; parameters: dose 30 mg/kg, route oral; conditions: in vivo
# Rattus norvegicus [5] = experiment: Hypoglycemic activity in Wistar albino rat assessed as reduction of blood glucose level at 60 mg/kg, po after 1 hr (reference value: 71.26 +/- 4.3 mg/dl); type: ADME, organism-based; parameters: dose 60 mg/kg, route oral; conditions: in vivo
# Rattus norvegicus [6] = experiment: Antihyperglycemic activity in Wistar albino rat streptozotocin-induced diabetic model assessed as reduction of blood glucose level at 30 mg/kg, po after 1 hr (reference value: 389.16 +/- 19 mg/dl); type: functional
# Rattus norvegicus [7] = experiment: Hypoglycemic activity in Wistar albino rat assessed as reduction of blood glucose level at 60 mg/kg, po after 5 hrs (reference value: 73.8 +/- 4.5 mg/dl); type: ADME, organism-based; parameters: dose 60 mg/kg, route oral; conditions: in vivo
# Rattus norvegicus [8] = experiment: Antiatherosclerosis activity in Wistar albino rat assessed as protection from atherogenicity at 30 mg/kg, po qd for 30 days relative to control; type: functional
# Rattus norvegicus [9] = experiment: Hypoglycemic activity in Wistar albino rat assessed as reduction of blood glucose level at 20 mg/kg, po after 1 hr (reference value: 71.26 +/- 4.3 mg/dl); type: ADME, organism-based; parameters: dose 20 mg/kg, route oral; conditions: in vivo
# Rattus norvegicus [10] = experiment: Antihyperglycemic activity in Wistar albino rat streptozotocin-induced diabetic model assessed as reduction of fasting blood glucose level at 30 mg/kg, po qd measured on day 1 (reference value: 416.4 +/- 24.2 mg/dl); type: functional
# Rattus norvegicus [11] = experiment: Hypoglycemic activity in Wistar albino rat assessed as reduction of blood glucose level at 60 mg/kg, po after 2 hrs (reference value: 76.5 +/- 3.7 mg/dl); type: ADME, organism-based; parameters: dose 60 mg/kg, route oral; conditions: in vivo
# Rattus norvegicus [12] = experiment: Antihyperglycemic activity in glucose loaded Wistar albino rat streptozotocin-induced diabetic model assessed as reduction of blood glucose level at 30 mg/kg, po after 1 hr by oral glucose tolerance test; type: functional, organism-based; parameters: dose 30 mg/kg
# Rattus norvegicus [13] = experiment: Antihyperglycemic activity in Wistar albino rat streptozotocin-induced diabetic model assessed as reduction of blood glucose level at 30 mg/kg, po after 3 hrs (reference value: 384.33 +/- 17.33 mg/dl); type: functional
# Rattus norvegicus [14] = experiment: Antihyperlipidemic activity in Wistar albino rat streptozotocin-induced diabetic model assessed as reduction of serum VLDL-cholesterol level at 30 mg/kg, po qd for 30 days; type: functional, organism-based; parameters: dose 30 mg/kg
# Rattus norvegicus [15] = experiment: Antihyperglycemic activity in Wistar albino rat streptozotocin-induced diabetic model assessed as reduction of fasting blood glucose level at 30 mg/kg, po qd measured on day 30 relative to control; type: functional
# Rattus norvegicus [16] = experiment: Renalprotective activity in Wistar albino rat assessed as protection against streptozotocin-induced increase in creatinine level in blood at 30 mg/kg, po qd for 30 days; type: functional
# Rattus norvegicus [17] = experiment: Antihyperlipidemic activity in Wistar albino rat streptozotocin-induced diabetic model assessed as reduction of serum total cholesterol level at 30 mg/kg, po qd for 30 days; type: functional, organism-based; parameters: dose 30 mg/kg
# Rattus norvegicus [18] = experiment: Antihyperglycemic activity in Wistar albino rat streptozotocin-induced diabetic model assessed as reduction of blood glucose level at 60 mg/kg, po after 5 hrs (reference value: 372.2 +/- 16.6 mg/dl); type: functional
# Rattus norvegicus [19] = experiment: Antihyperglycemic activity in Wistar albino rat streptozotocin-induced diabetic model assessed as reduction of blood glucose level at 20 mg/kg, po after 2 hrs (reference value: 386.66 +/- 17.5 mg/dl); type: functional
# Rattus norvegicus [20] = experiment: Hypoglycemic activity in Wistar albino rat assessed as reduction of blood glucose level at 30 mg/kg, po after 6 hrs (reference value: 73.3 +/- 4.4 mg/dl); type: ADME, organism-based; parameters: dose 30 mg/kg, route oral; conditions: in vivo
# Rattus norvegicus [21] = experiment: Antihyperlipidemic activity in Wistar albino rat streptozotocin-induced diabetic model assessed as reduction of serum LDL level at 30 mg/kg, po qd for 30 days; type: functional, organism-based; parameters: dose 30 mg/kg
# Rattus norvegicus [22] = experiment: Antihyperlipidemic activity in Wistar albino rat streptozotocin-induced diabetic model assessed as reduction of serum triglyceride level at 30 mg/kg, po qd for 30 days; type: functional, organism-based; parameters: dose 30 mg/kg
# Rattus norvegicus [23] = experiment: Hepatoprotective activity in Wistar albino rat assessed as protection against streptozotocin-induced increase in AST, ALT and ALP level in serum at 30 mg/kg, po qd for 30 days; type: functional, organism-based; parameters: dose 30 mg/kg
# Rattus norvegicus [24] = experiment: Renaltoxicity in Wistar albino rat assessed as creatinine level in blood at 30 mg/kg, po qd for 30 days; type: organism-based; parameters: dose 30 mg/kg, route oral; conditions: in vivo, 720 h
# Rattus norvegicus [25] = experiment: Hypoglycemic activity in Wistar albino rat assessed as reduction of blood glucose level at 20 mg/kg, po after 2 hrs (reference value: 76.5 +/- 3.7 mg/dl); type: ADME, organism-based; parameters: dose 20 mg/kg, route oral; conditions: in vivo
# Rattus norvegicus [26] = experiment: Hypoglycemic activity in Wistar albino rat assessed as reduction of blood glucose level at 30 mg/kg, po after 1 hr (reference value: 71.26 +/- 4.3 mg/dl); type: ADME, organism-based; parameters: dose 30 mg/kg, route oral; conditions: in vivo
# Rattus norvegicus [27] = experiment: Hypoglycemic activity in Wistar albino rat assessed as reduction of blood glucose level at 30 mg/kg, po after 3 hrs (reference value: 76.3 +/- 5.4 mg/dl); type: ADME, organism-based; parameters: dose 30 mg/kg, route oral; conditions: in vivo
# Rattus norvegicus [28] = experiment: Antihyperglycemic activity in Wistar albino rat streptozotocin-induced diabetic model assessed as reduction of blood glucose level at 30 mg/kg, po after 5 hrs (reference value: 372.2 +/- 16.6 mg/dl); type: functional
# Rattus norvegicus [29] = experiment: Antihyperglycemic activity in Wistar albino rat streptozotocin-induced diabetic model assessed as reduction of blood glucose level at 20 mg/kg, po after 6 hrs (reference value: 372.5 +/- 15.6 mg/dl); type: functional
# Rattus norvegicus [30] = experiment: Hypoglycemic activity in Wistar albino rat assessed as reduction of blood glucose level at 20 mg/kg, po after 5 hrs (reference value: 73.8 +/- 4.5 mg/dl); type: ADME, organism-based; parameters: dose 20 mg/kg, route oral; conditions: in vivo
# Rattus norvegicus [31] = experiment: Antihyperglycemic activity in Wistar albino rat streptozotocin-induced diabetic model assessed as increase of body weight at 30 mg/kg, po qd measured on day 15 (reference value: -30.3%); type: functional
# Rattus norvegicus [32] = experiment: Antihyperglycemic activity in Wistar albino rat streptozotocin-induced diabetic model assessed as reduction of blood glucose level at 20 mg/kg, po after 3 hrs (reference value: 384.33 +/- 17.33 mg/dl); type: functional
# Rattus norvegicus [33] = experiment: Antihyperglycemic activity in Wistar albino rat streptozotocin-induced diabetic model assessed as reduction of blood glucose level at 60 mg/kg, po after 4 hrs (reference value: 373.5 +/- 15.6 mg/dl); type: functional
# Rattus norvegicus [34] = experiment: Antihyperglycemic activity in Wistar albino rat streptozotocin-induced diabetic model assessed as reduction of blood glucose level at 30 mg/kg, po after 4 hrs (reference value: 373.5 +/- 15.6 mg/dl); type: functional
# Rattus norvegicus [35] = experiment: Hypoglycemic activity in Wistar albino rat assessed as reduction of blood glucose level at 30 mg/kg, po after 4 hrs (reference value: 75.8 +/- 4.7 mg/dl); type: ADME, organism-based; parameters: dose 30 mg/kg, route oral; conditions: in vivo
structure (smiles),measurement,setting,value
Oc1ccccc1CNc1ccc(NCc2ccccc2O)cc1,Activity,Rattus norvegicus [1],72 mg/dL
same,Activity,Rattus norvegicus [2],54.02 mg/dL
same,Activity,Rattus norvegicus [3],2.94%
same,Activity,Rattus norvegicus [4],72.8 mg/dL
same,Activity,Rattus norvegicus [5],75.7 mg/dL
same,Activity,Rattus norvegicus [6],315.2 mg/dL
same,Activity,Rattus norvegicus [7],78 mg/dL
same,Activity,Rattus norvegicus [8],70.1%
same,Activity,Rattus norvegicus [9],74.12 mg/dL
same,Activity,Rattus norvegicus [10],333 mg/dL
same,Activity,Rattus norvegicus [11],71.3 mg/dL
same,Activity,Rattus norvegicus [12],Active
same,Activity,Rattus norvegicus [13],248.8 mg/dL
same,Activity,Rattus norvegicus [14],Active
same,Activity,Rattus norvegicus [15],113.5 mg/dL
same,Activity,Rattus norvegicus [16],0.462 mg/dL
same,Activity,Rattus norvegicus [17],Active
same,Activity,Rattus norvegicus [18],49.1 mg/dL
same,Activity,Rattus norvegicus [19],312.83 mg/dL
same,Activity,Rattus norvegicus [20],72.5 mg/dL
same,Activity,Rattus norvegicus [21],Active
same,Activity,Rattus norvegicus [22],Active
same,Activity,Rattus norvegicus [23],Active
same,Activity,Rattus norvegicus [24],0.37 mg/dL
same,Activity,Rattus norvegicus [25],73.16 mg/dL
same,Activity,Rattus norvegicus [26],74.16 mg/dL
same,Activity,Rattus norvegicus [27],74.16 mg/dL
same,Activity,Rattus norvegicus [28],172.8 mg/dL
same,Activity,Rattus norvegicus [29],223.28 mg/dL
same,Activity,Rattus norvegicus [30],70.1 mg/dL
same,Activity,Rattus norvegicus [31],8.57%
same,Activity,Rattus norvegicus [32],301.3 mg/dL
same,Activity,Rattus norvegicus [33],54.8 mg/dL
same,Activity,Rattus norvegicus [34],215.6 mg/dL
same,Activity,Rattus norvegicus [35],73.16 mg/dL
